In US20240059677A1, “SUBSTITUTED PYRIMIDINE DERIVATIVES AS NICOTINIC ACETYLCHOLINESTERASE RECEPTOR ALPHA 6 MODULATOR” (priority 2020, published 2024):

Target: T1, human nAChRα6-α3 chimera, in addition to β2 and β3^V273S subunits (Homo sapiens, UniProt P32297+Q15825)
T1 construct: expressed in transfected cells
Assay: fluorescence-based calcium assay: inhibition of nicotine stimulated nAChRα6 activity (FLIPR)
Conditions: HEK cell line stably expressing the receptor; 10 min pre-incubation, nicotine EC80; 10-point curve, duplicate wells; read-out: IC50
Method in brief: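 HEK cells stably expressing the human α6-α3 chimera with β2 and β3^V273S were loaded with calcium dye at 30° C. Compounds were pre-incubated for 10 min before nicotine at EC80, and the fluorescence change was read on a FLIPR. Ten-point half-log concentration-response, duplicate wells.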

T1 sequence (Q05901 25-458 V273S): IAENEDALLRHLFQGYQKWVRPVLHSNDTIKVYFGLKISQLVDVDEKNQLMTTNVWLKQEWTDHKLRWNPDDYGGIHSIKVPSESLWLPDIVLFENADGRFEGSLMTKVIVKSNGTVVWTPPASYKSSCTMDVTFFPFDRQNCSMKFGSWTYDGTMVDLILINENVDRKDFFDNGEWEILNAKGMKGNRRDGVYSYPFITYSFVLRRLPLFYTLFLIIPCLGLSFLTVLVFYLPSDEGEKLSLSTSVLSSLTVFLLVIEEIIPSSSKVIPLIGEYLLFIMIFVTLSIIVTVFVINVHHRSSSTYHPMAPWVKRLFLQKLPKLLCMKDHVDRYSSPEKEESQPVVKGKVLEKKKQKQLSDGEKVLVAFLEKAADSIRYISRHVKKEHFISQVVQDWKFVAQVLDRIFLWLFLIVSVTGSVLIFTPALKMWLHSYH
T1 sequence (P17787 26-502, stated change not applied, further chain): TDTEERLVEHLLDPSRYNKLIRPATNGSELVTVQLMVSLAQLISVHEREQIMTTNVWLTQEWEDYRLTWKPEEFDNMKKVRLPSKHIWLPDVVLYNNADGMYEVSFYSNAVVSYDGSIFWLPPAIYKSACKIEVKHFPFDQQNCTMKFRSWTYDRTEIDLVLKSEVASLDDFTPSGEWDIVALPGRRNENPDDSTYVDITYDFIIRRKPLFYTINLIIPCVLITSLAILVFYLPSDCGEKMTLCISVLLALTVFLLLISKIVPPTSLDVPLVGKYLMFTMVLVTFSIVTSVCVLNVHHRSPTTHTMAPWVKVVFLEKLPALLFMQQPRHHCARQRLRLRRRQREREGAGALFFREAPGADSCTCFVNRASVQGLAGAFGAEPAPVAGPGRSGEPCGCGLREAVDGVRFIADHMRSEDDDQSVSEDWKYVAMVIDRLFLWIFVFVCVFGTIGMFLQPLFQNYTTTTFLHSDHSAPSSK
T1 sequence (Q15825+P32297 fused with the stated changes): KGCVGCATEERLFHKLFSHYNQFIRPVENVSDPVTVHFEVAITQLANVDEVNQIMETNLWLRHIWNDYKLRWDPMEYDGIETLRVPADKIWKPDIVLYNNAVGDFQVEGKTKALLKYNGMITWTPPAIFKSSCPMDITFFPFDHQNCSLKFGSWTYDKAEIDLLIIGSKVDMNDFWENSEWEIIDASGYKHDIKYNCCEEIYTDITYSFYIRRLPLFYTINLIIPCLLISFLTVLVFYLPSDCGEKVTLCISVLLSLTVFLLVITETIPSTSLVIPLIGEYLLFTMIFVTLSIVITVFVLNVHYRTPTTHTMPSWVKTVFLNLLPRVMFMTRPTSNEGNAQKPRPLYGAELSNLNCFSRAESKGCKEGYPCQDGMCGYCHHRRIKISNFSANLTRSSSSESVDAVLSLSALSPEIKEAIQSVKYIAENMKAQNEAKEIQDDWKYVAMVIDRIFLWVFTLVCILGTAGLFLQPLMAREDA

| SMILES | IC50 |
| --- | --- |
| COc1ccc(-c2cnc(NC3CCCN(C(C)C)C3)nc2C)c(F)c1 (stereo not drawn) [Example 48, 5-(2-fluoro-4-methoxyphenyl)-N-(1-isopropylpiperidin-3-yl)-4-methyl-pyrimidin-2-amine] | 83 nM |
| COc1ccc(-c2cnc(NCC3CCCN(C(C)C)C3)nc2C)c(F)c1 (stereo not drawn) [Example 49, 5-(2-fluoro-4-methoxyphenyl)-N-((1-isopropylpiperidin-3-yl)methyl)-4-methyl-pyrimidin-2-amine] | 69 nM |
| COc1ccc(-c2cnc(NCC3CCCCN3C(C)C)nc2C)c(F)c1 (stereo not drawn) [Example 50, 5-(2-fluoro-4-methoxyphenyl)-N-((1-isopropylpiperidin-2-yl)methyl)-4-methyl-pyrimidin-2-amine] | 103 nM |
| COc1ccc(-c2cnc(NCC3CCCOC3)nc2C)c(F)c1 (stereo not drawn) [Example 51, 5-(2-fluoro-4-methoxyphenyl)-4-methyl-N-((tetrahydro-2H-pyran-3-yl)methyl)pyrimidin-2-amine] | 1100 nM |
| Cc1nc(NC2CCC(S(C)(=O)=O)C2)ncc1-c1ccc(F)cc1F (stereo not drawn) [Example 52, 5-(2,4-difluorophenyl)-4-methyl-N-(3-(methylsulfonyl)cyclopentyl) pyrimidin-2-amine] | 1530 nM |
| Cc1nc(NC2CCCN(CC(F)(F)F)C2)ncc1-c1ccc(F)cc1F (stereo not drawn) [Example 60, 5-(2,4-difluorophenyl)-4-methyl-N-(1-(2,2,2-trifluoroethyl)piperidin-3-yl) pyrimidin-2-amine] | 1180 nM |
| COc1ccc(F)c(-c2cnc(NCC3COCCN3C)nc2C)c1 (stereo not drawn) [Example 61, 5-(2-fluoro-5-methoxyphenyl)-4-methyl-N-((4-methylmorpholin-3-yl)methyl)pyrimidin-2-amine] | 533 nM |
| COc1ccc(-c2cnc(NCC3COCCN3C)nc2C)c(Cl)c1 (stereo not drawn) [Example 62, 5-(2-chloro-4-methoxyphenyl)-4-methyl-N-((4-methylmorpholin-3-yl)methyl)pyrimidin-2-amine] | 64 nM |
| COc1ccc(-c2cnc(NCc3cncn3C)nc2C)c(Cl)c1 [Example 63, 5-(2-chloro-4-methoxyphenyl)-4-methyl-N-((1-methyl-1H-imidazol-5-yl)methyl)pyrimidin-2-amine] | 141 nM |
| CN1CCC(Nc2ncc(-c3ccc(F)cc3F)c(C#N)n2)CC1 [Example 66, 5-(2,4-difluorophenyl)-2-((1-methylpiperidin-4-yl)amino)pyrimidine-4-carbonitrile] | 94 nM |
| Cc1nc(NC2CCN(C(C)C)CC2)ncc1-c1ccc(F)cc1F [Example 67, 5-(2,4-difluorophenyl)-N-(1-isopropylpiperidin-4-yl)-4-methyl-pyrimidin-2-amine] | 66 nM |
| COc1ccc(-c2c(C)nc(NCC3CCCN3C)nc2C)c(F)c1 (stereo not drawn) [Example 70, 5-(2-fluoro-4-methoxyphenyl)-4,6-dimethyl-N-((1-methylpyrrolidin-2-yl)methyl)pyrimidin-2-amine] | 72 nM |
| Cc1nc(NC2CCN(C)CC2)ncc1-c1ccc(F)cc1F [Example 71, 5-(2,4-difluorophenyl)-4-methyl-N-(1-methylpiperidin-4-yl)pyrimidin-2-amine] | 54 nM |
| Cc1nc(NC2CCCN(C(C)C)C2)ncc1-c1ccc(F)cc1F (stereo not drawn) [Example 72, 5-(2,4-difluorophenyl)-N-(1-isopropylpiperidin-3-yl)-4-methyl-pyrimidin-2-amine] | 52 nM |
| COc1ccc(-c2c(C)nc(NCC3CCCN3C)nc2OC)c(F)c1 (stereo not drawn) [Example 75, 5-(2-fluoro-4-methoxyphenyl)-4-methoxy-6-methyl-N-((1-methylpyrrolidin-2-yl)methyl)pyrimidin-2-amine] | 94 nM |
| Cc1nc(NC[C@H]2CC(F)(F)CN2C)ncc1-c1ccc(F)cc1F [Example 80, (R)—N-((4,4-difluoro-1-methylpyrrolidin-2-yl)methyl)-5-(2,4-difluorophenyl)-4-methyl-pyrimidin-2-amine] | 1470 nM |
| COc1ccc(-c2cnc(NC3CCN(C(C)C)CC3)nc2C#N)c(F)c1 [Example 81, 5-(2-fluoro-4-methoxyphenyl)-2-((1-isopropylpiperidin-4-yl)amino) pyrimidine-4-carbonitrile] | 98 nM |
| Cc1nc(NCC2CCCN2)ncc1-c1ccc(F)cc1F (stereo not drawn) [Example 82, 5-(2,4-difluorophenyl)-4-methyl-N-(pyrrolidin-2-ylmethyl)pyrimidin-2-amine] | 18 nM |
| CCN1CCCC1CNc1ncc(-c2ccc(F)cc2F)c(C)n1 (stereo not drawn) [Example 85, 5-(2,4-difluorophenyl)-N-((1-ethylpyrrolidin-2-yl)methyl)-4-methyl-pyrimidin-2-amine] | 51 nM |
| [2H]C([2H])([2H])N1CCCC1CNc1ncc(-c2ccc(F)cc2F)c(C)n1 (stereo not drawn) [Example 87] | 45 nM |

| SMILES | IC50 |
| --- | --- |
| Cc1nc(NC2CCN(C(C)C)CC2)ncc1-c1ccc(OC(F)(F)F)cc1F [Example 88, 5-(2-fluoro-4-(trifluoromethoxy)phenyl)-N-(1-isopropylpiperidin-4-yl)-4-methyl-pyrimidin-2-amine] | 149 nM |
| Cc1nc(NC2CCN(C)CC2)ncc1-c1ccc(OC(F)(F)F)cc1F [Example 89, 5-(2-fluoro-4-(trifluoromethoxy)phenyl)-4-methyl-N-(1-methylpiperidin-4-yl)pyrimidin-2-amine] | 180 nM |
| [2H]C([2H])([2H])N1CCC[C@H]1CNc1ncc(-c2ccc(F)cc2F)c(C)n1 [Example 90a, (S)-5-(2,4-difluorophenyl)-4-methyl-N-((1-(trideuteriomethyl)pyrrolidin-2-yl)methyl)pyrimidin-2-amine] | 211 nM |
| [2H]C([2H])([2H])N1CCC[C@@H]1CNc1ncc(-c2ccc(F)cc2F)c(C)n1 [Example 90b, (R)-5-(2,4-difluorophenyl)-4-methyl-N-((1-(trideuteriomethyl)pyrrolidin-2-yl)methyl)pyrimidin-2-amine] | 186 nM |
| Cc1nc(NC[C@H]2CCCN2C)ncc1-c1ccc(C(F)(F)F)cc1F [Example 91a, (R)-5-(2-fluoro-4-(trifluoromethyl)phenyl)-4-methyl-N-((1-methylpyrrolidin-2-yl)methyl)pyrimidin-2-amine] | 8 nM |
| Cc1nc(NC[C@@H]2CCCN2C)ncc1-c1ccc(C(F)(F)F)cc1F [Example 91b, (S)-5-(2-fluoro-4-(trifluoromethyl)phenyl)-4-methyl-N-((1-methylpyrrolidin-2-yl)methyl)pyrimidin-2-amine] | 28 nM |
| Cc1nc(NC[C@H]2CCCN2C)ncc1-c1ccc(F)cc1C(F)(F)F [Example 92a, (R)-5-(4-fluoro-2-(trifluoromethyl)phenyl)-4-methyl-N-((1-methylpyrrolidin-2-yl)methyl)pyrimidin-2-amine] | 33 nM |
| Cc1nc(NC[C@@H]2CCCN2C)ncc1-c1ccc(F)cc1C(F)(F)F [Example 92b, (S)-5-(4-fluoro-2-(trifluoromethyl)phenyl)-4-methyl-N-((1-methylpyrrolidin-2-yl)methyl)pyrimidin-2-amine] | 73 nM |
| Cc1nc(NC[C@H]2CCCN2C)ncc1-c1ccc(OC(F)(F)F)cc1F [Example 93a, (R)-5-(2-fluoro-4-(trifluoromethoxy)phenyl)-4-methyl-N-((1-methylpyrrolidin-2-yl)methyl)pyrimidin-2-amine] | 50 nM |
| Cc1nc(NC[C@@H]2CCCN2C)ncc1-c1ccc(OC(F)(F)F)cc1F [Example 93b, (S)-5-(2-fluoro-4-(trifluoromethoxy)phenyl)-4-methyl-N-((1-methylpyrrolidin-2-yl)methyl)pyrimidin-2-amine] | 11 nM |
| Cc1nc(NC[C@H]2CCCN2)ncc1-c1ccc(F)cc1F [Example 94a, (R)-5-(2,4-difluorophenyl)-4-methyl-N-(pyrrolidin-2-ylmethyl)pyrimidin-2-amine] | 5 nM |
| Cc1nc(NC[C@H]2CCCN2CC(F)(F)F)ncc1-c1ccc(F)cc1F [Example 95a, (R)-5-(2,4-difluorophenyl)-4-methyl-N-((1-(2,2,2-trifluoroethyl)pyrrolidin-2-yl)methyl)pyrimidin-2-amine] | 48 nM |
| Cc1nc(NC[C@@H]2CCCN2CC(F)(F)F)ncc1-c1ccc(F)cc1F [Example 95b, (S)-5-(2,4-difluorophenyl)-4-methyl-N-((1-(2,2,2-trifluoroethyl)pyrrolidin-2-yl)methyl)pyrimidin-2-amine] | 70 nM |
| CCN1CCCC1CNc1ncc(-c2ccc(C(F)(F)F)cc2F)c(C)n1 (stereo not drawn) [Example 98, N-((1-ethylpyrrolidin-2-yl)methyl)-5-(2-fluoro-4-(trifluoromethyl)phenyl)-4-methyl-pyrimidin-2-amine] | 67 nM |
| Cc1nc(NCC2CCN(C)C2)ncc1-c1ccc(C(F)(F)F)cc1F (stereo not drawn) [Example 99, 5-(2-fluoro-4-(trifluoromethyl)phenyl)-4-methyl-N-((1-methylpyrrolidin-3-yl)methyl)pyrimidin-2-amine] | 83 nM |
| Cc1nc(N[C@H]2CCN(C(C)C)C2)ncc1-c1ccc(C(F)(F)F)cc1F [Example 100, (S)-5-(2-fluoro-4-(trifluoromethyl)phenyl)-N-(1-isopropylpyrrolidin-3-yl)-4-methyl-pyrimidin-2-amine] | 110 nM |
| Cc1nc(NCC2CCN(C)CC2)ncc1-c1ccc(C(F)(F)F)cc1F [Example 101, 5-(2-fluoro-4-(trifluoromethyl)phenyl)-4-methyl-N-((1-methyl-4-piperidinyl)methyl)pyrimidin-2-amine] | 109 nM |
| Cc1nc(NC[C@H]2CCCN2)ncc1-c1ccc(C(F)(F)F)cc1F [Example 102, (R)-5-(2-fluoro-4-(trifluoromethyl)phenyl)-4-methyl-N-(pyrrolidin-2-ylmethyl)pyrimidin-2-amine] | 5 nM |
| Cc1nc(NC[C@@H]2CCCN2)ncc1-c1ccc(C(F)(F)F)cc1F [Example 103, (S)-5-(2-fluoro-4-(trifluoromethyl)phenyl)-4-methyl-N-(pyrrolidin-2-ylmethyl)pyrimidin-2-amine] | 40 nM |
